Measured values: paper PMC3355380, “Back to the Future: Lessons Learned in Modern Target-based and Whole-Cell Lead Optimization of Antimalarials” (Current Topics in Medicinal Chemistry, 2012)
Values after ≈ are worked out from the molar mass of the structure shown. Where two headings read alike, the source gives them in different places. One block for each compound: values may come before it.

Legend:
[1] = test system: Plasmodium berghei; experiment: P. berghei murine model; assay type: in vivo; conditions: for Activity (%): average parasitemia reduction; for Cure Rate (%): cure was no parasites at day 30; for parasitemia reduction: at all dosing regimens
[2] = cytotoxicity on CHO cells; assay type: cell-based; conditions: Chinese hamster
[3] = cytotoxicity on Huh7 cells; conditions: human, Huh7 cells
[4] = test system: P. falciparum 3D7; experiment: P. falciparum 3D7 proliferation assay; assay type: cell-based, Plasmodium falciparum; conditions: for EC50: Plasmodium falciparum, 3D7
Description: (§1) We screened both our in-house compound collection (~2.3M compounds) and natural products library (12,000 compounds) using a cell based Plasmodium falciparum proliferation assay. This screen provided data on a large number of chemically diverse anti-malarial compounds. These nearly 5700 hits have been deposited into the public EBI database by GNF/Novartis. A number of these hits originated from kinase-directed libraries and many of which are pan-kinase inhibitors. De-convoluting and eliminating inherent kinase activity with many of these scaffolds while maintaining cellular potency was the first step in the hit-to-lead phase for these particular chemotypes. What follows is a summary of the chemical optimization of some kinase-like and non-kinase scaffolds which came out of the whole-cell screening effort.

[5] = cytotoxicity on HEp2 cells; assay type: cell-based; conditions: human
[6] = cytotoxicity on HeLa cells; assay type: cell-based; conditions: human
[7] = target: recombinant PfCDPK1 (Plasmodium falciparum, UniProt P62344); experiment: PfCDPK1 enzyme inhibition; assay type: biochemical
Chain of recombinant PfCDPK1 (P62344 whole entry): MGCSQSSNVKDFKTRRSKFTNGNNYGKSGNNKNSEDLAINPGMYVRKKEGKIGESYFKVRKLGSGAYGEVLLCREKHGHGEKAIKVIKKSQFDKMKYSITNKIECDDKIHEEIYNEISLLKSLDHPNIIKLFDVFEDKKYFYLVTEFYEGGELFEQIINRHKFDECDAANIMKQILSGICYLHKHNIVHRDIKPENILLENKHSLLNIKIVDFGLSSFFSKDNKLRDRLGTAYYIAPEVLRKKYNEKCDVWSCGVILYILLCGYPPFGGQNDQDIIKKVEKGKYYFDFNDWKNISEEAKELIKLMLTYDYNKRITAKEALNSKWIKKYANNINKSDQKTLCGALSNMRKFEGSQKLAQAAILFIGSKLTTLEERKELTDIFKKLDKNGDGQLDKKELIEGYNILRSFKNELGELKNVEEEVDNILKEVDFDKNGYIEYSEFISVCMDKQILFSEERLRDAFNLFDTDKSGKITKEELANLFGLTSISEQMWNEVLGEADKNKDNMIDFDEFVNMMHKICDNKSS
Description: In P. falciparum, calcium-dependent protein kinase 1 (PfCDPK1) is expressed during schizogony in the blood and sporozoite stages and is ultimately required for parasite invasion of host cells, parasite motility, and potentially cytokinesis. We identified a series of purine-based, ATP competitive kinase inhibitors from a target-based screen of approximately 20,000 compounds on recombinant PfCDPK1 [9]. Of the most promising hits, the 2,6,9-trisubstitutes purines made up the largest class of compounds coming out of the screen and were therefore chosen as a lead series for chemical optimization.

[8] = test system: P. falciparum W2; experiment: P. falciparum W2 proliferation assay; assay type: cell-based; conditions: Plasmodium falciparum, mean of two experiments
Description: as §1

[9] = test system: fifteen P. falciparum strains; experiment: panel of fifteen P. falciparum wild type and drug resistant strains; assay type: cell-based; conditions: Plasmodium falciparum, read-out: in vitro EC50s across fifteen P. falciparum strains
[10] = test system: 40 mammalian kinases; experiment: panel of 40 mammalian kinases; assay type: biochemical
[11] = aqueous solubility; assay type: physicochemical; conditions: aqueous medium, pH 6.8, aqueous buffer
[12] = test system: 190 kinases; experiment: human kinase profile on 190 kinases, biochemical and cellular formats; conditions: biochemical and cellular assay formats
[13] = test system: Huh7; experiment: cytotoxicity on Huh7 cells; conditions: mean of two experiments
[14] = test system: P. falciparum NF54; design: method as in PMID 20813948; conditions: Fig. 4; cited from earlier work
[15] = test system: chloroquine-resistant K1 P. falciparum strain; design: method as in PMID 20813948; conditions: Fig. 4; cited from earlier work
[16] = PAMPA permeability assay; assay type: in vitro ADME
Description: Access to these types of in vitro assays, both within industry and academia, can greatly accelerate the drug discovery process.

[17] = in vivo PK in mouse
[18] = metabolic stability in human liver microsomes; assay type: in vitro ADME; conditions: for half-life: human, liver microsomes, read-out: Liver Microsomes t1/2 (min), Human; for Liver Microsomes CLint, Human: intrinsic clearance, high clearance corresponds to low stability
[19] = metabolic stability in mouse liver microsomes; assay type: in vitro ADME; conditions: for Liver Microsomes CLint, Mouse: intrinsic clearance, high clearance corresponds to low stability; for half-life: mouse, liver microsomes, read-out: Liver Microsomes t1/2 (min), Mouse
[20] = test system: P. falciparum NF54; experiment: P. falciparum NF54 in vitro potency; assay type: cell-based; conditions: Plasmodium falciparum, spiroindolones, Tables 8 and 9
[21] = test system: Plasmodium berghei; design: method as in earlier work; conditions: single oral dose at 100 mg/kg; cited from earlier work
[22] = in vivo; conditions: mouse, po
[23] = target: WT-PfDHFR (wild type PfDHFR); design: method as in PMID 20350951; conditions: cited from earlier work
[24] = target: QM-PfDHFR (quadruple mutant PfDHFR); design: method as in PMID 20350951; conditions: cited from earlier work
[25] = 1 x 30 mg/kg, 7% Tween 80/3% ethanol (20: 75% PEG300/25%D5W)
[26] = 1 x 30 mg/kg, untreated mice 6-7 days
[27] = 1 x 100 mg/kg, untreated mice 6-7 days
[28] = 3 x 30 mg/kg, untreated mice 6-7 days
[29] = purines, mean of two experiments, read-out: P. falciparum 3D7 EC50
[30] = mean of two experiments, read-out: PfCDPK1 IC50
[31] = piperidyl benzamides, mean of two experiments, read-out: P. falciparum 3D7 EC50
[32] = imidazolopyrimidines, Fig. 2, read-out: 3D7 EC50
[33] = imidazolopiperazine hits, mean of two experiments, read-out: P. falciparum 3D7 EC50

SMILES: C[C@H]1[C@H](OC(=O)CCC(=O)O)O[C@@H]2O[C@@]3(C)CC[C@H]4[C@H](C)CC[C@@H]1[C@@]24OO3 [AS, artesunate, reference compound]
Activity (%) [1, 25]: 89% | Activity (%) ([1]; 1 x 30 mg/kg, 10% ethanol, 30% PEG400, 6% vitamin E TPGS (30: 0.5% MCM / 0.1% Solutol HS15)): 92.2% | Cure Rate (%) ([1]; 1 x 30 mg/kg): 0% | Survival [1, 26]: 7.2 days | Survival ([1]; 1 x 30 mg/kg, untreated mice 6-7 days, Table 10): 7.3 days | Activity (%) ([1]; 1 x 100 mg/kg): 97% | Survival [1, 27]: 6.7 days | Survival ([1]; 3 x 30 mg/kg, 30 day experiment, Table 10): 11.8 days | Activity (%) ([1]; 3 x 30 mg/kg): 98% | Activity (%) ([1]; 3 x 30 mg/kg, Table 10): 99.0% | Cure Rate (%) ([1]; 3 x 30 mg/kg): 0% | Survival [1, 28]: 7.2 days

SMILES: N[C@H]1CC[C@H](Nc2nc(Nc3ccc(C(=O)N4CCCCC4)cc3)c3ncn(-c4cccc(F)c4)c3n2)CC1 [Compound 2, purfalcamine]
EC50 [2]: 12300 nM | EC50 [3]: 5500 nM | EC50 [4, 29]: 230 nM | EC50 [5]: 7200 nM | EC50 [6]: 7000 nM | IC50 [7]: 17 nM | improvement in enzyme potency (2 vs. 3) ([7]; compound 2 versus compound 3): greater than 200 fold

EC50 [4, 29]: 312 nM | IC50 [7, 30]: 4040 nM
SMILES: N[C@H]1CC[C@H](Nc2nc(Nc3ccc(C(=O)N4CCCCC4)cc3)c3ncn(-c4ccc(OCc5ccccc5)cc4)c3n2)CC1 [Compound 3]

EC50 [4, 29]: 400 nM | IC50 [7, 30]: 342 nM
SMILES: N[C@H]1CC[C@H](Nc2nc(Nc3ccc(C(=O)N4CCCCC4)cc3)c3ncn(-c4ccc5c(c4)OCO5)c3n2)CC1 [Compound 4]

SMILES: CCOc1ccc(-n2cnc3c(Nc4ccc(C(=O)N5CCCCC5)cc4)nc(N[C@H]4CC[C@H](N)CC4)nc32)cc1 [Compound 5]
EC50 [4, 29]: 535 nM | IC50 [7]: 240 nM

EC50 [4, 29]: > 10000 nM | IC50 [7, 30]: 71 nM
SMILES: N[C@H]1CC[C@H](Nc2nc(Nc3ccc(C(=O)N4CCCCC4)cc3)c3ncn(-c4cccc(C(=O)O)c4)c3n2)CC1 [Compound 6]

EC50 [4, 29]: > 10000 nM | IC50 [7, 30]: 28 nM
SMILES: N[C@H]1CC[C@H](Nc2nc(Nc3ccc(C(=O)N4CCCCC4)cc3)c3ncn(-c4ccc(C(=O)O)cc4)c3n2)CC1 [Compound 7]

EC50 [4, 31]: 134 ± 56 nM | EC50 ([8]; piperidyl benzamides): 888 ± 112 nM
SMILES: O=C(Nc1cccc(Cl)c1)c1cc(N2CCC(N3CCCC3)CC2)cc(C(F)(F)F)c1 [Compound 11]

EC50 [4, 31]: 97 ± 18 nM | EC50 ([8]; piperidyl benzamides): 276 ± 14 nM
SMILES: O=C(Nc1cccc(Cl)c1)c1cc(N2CCC(N3CCCCC3)CC2)cc(C(F)(F)F)c1 [Compound 12]

EC50 [4, 31]: 149 nM | EC50 ([8]; piperidyl benzamides): 299 nM
SMILES: O=C(Nc1cccc(C(F)(F)F)c1)c1cc(N2CCC(N3CCCCC3)CC2)cc(C(F)(F)F)c1 [Compound 13]

EC50 [4, 31]: 140 nM | EC50 ([8]; piperidyl benzamides): 323 nM | EC50 [9]: 100 to 300 nM
SMILES: CC1CCN(C2CCN(c3cc(C(=O)Nc4cccc(Cl)c4)cc(C(F)(F)F)c3)CC2)CC1 [Compound 14]

EC50 [4, 31]: 58 nM | EC50 ([8]; piperidyl benzamides): 211 nM
SMILES: CC1CCCN(C2CCN(c3cc(C(=O)Nc4cccc(C(F)(F)F)c4)cc(C(F)(F)F)c3)CC2)C1 (centres unmarked) [Compound 15]

EC50 [4, 32]: 420 nM | solubility [11]: 36 µM (≈ 17.3 µg/mL)
SMILES: FC(F)(F)Oc1ccc(Nc2cc(Nc3nccn3-c3cccc(C(F)(F)F)c3)ncn2)cc1 [Compound 16]
activity against a panel of 40 mammalian kinases [10]: did not exhibit significant activity

human kinase profile on 190 kinases [12]: clean human kinase profile | EC50 [4, 32]: 34 nM | EC50 [9]: < 140 nM
SMILES: CN1CCN(c2nc(Nc3ccc(OC(F)(F)F)cc3)cc(Nc3nccn3-c3cccc(C(F)(F)F)c3)n2)CC1 [Compound 17]
improvement in potency over the hit compound ([4]; 17 versus 16): greater than 10 fold

EC50 [4, 33]: 235 nM | EC50 ([8]; imidazolopiperazine hits): 271 nM
SMILES: NC(Cc1ccccc1)C(=O)N1CCn2c(nc(-c3ccccc3)c2Nc2ccc3c(c2)OCO3)C1 (centres unmarked) [Compound 18b]
Cytotoxicity (µM) Huh7 [13]: > 10 µM

EC50 [4, 33]: 116 nM | EC50 ([8]; imidazolopiperazine hits): 119 nM
SMILES: CC(C)CC(N)C(=O)N1CCn2c(nc(-c3ccccc3)c2Nc2ccc3c(c2)OCO3)C1 (centres unmarked) [Compound 18c]
Cytotoxicity (µM) Huh7 [13]: > 10 µM

SMILES: CC(C)(N)C(=O)N1CCn2c(nc(-c3ccc(F)cc3)c2Nc2ccc(F)cc2)C1 [Compound 19]
Activity (%) [1, 25]: 99.3% | Survival [1, 26]: 7.7 days | Activity (%) ([1]; 1 x 100 mg/kg): 99.6% | Survival [1, 27]: 13.3 days | Activity (%) ([1]; 3 x 30 mg/kg): 99.9% | Survival [1, 28]: 14.0 days | parasitemia reduction [1]: more than 99%

SMILES: CC(C)(N)C(=O)N1CCn2c(nc(-c3ccc(F)cc3)c2Nc2ccc(F)c(Cl)c2)C1 [Compound 20]
Activity (%) [1, 25]: 99.4% | Survival [1, 26]: 7.7 days | Activity (%) ([1]; 1 x 100 mg/kg): 99.4% | Survival [1, 27]: 17.0 days | Activity (%) ([1]; 3 x 30 mg/kg): 99.8% | Survival [1, 28]: 17.7 days | parasitemia reduction [1]: more than 99%

SMILES: CC1CCc2c([nH]c3ccccc23)C2(N1)C(=O)Nc1ccc(Br)cc12 (centres unmarked) [Compound 21]
mouse survival ([1]; single oral dose of 100 mg/kg): slight prolongation in mouse survival over control | reduction in parasitemia ([1]; single oral dose of 100 mg/kg): 96% | EC50 [14]: 90 nM | EC50 [15]: 80 nM | permeability in a PAMPA assay [16]: 99% | solubility [11]: 75 µM (≈ 29.7 µg/mL) | Cmax ([17]; in vivo, po, 25 mg/kg): 1400 nM | bioavailability ([17]; in vivo, po, 25 mg/kg): 59% | oral T1/2 ([17]; single 25 mg/kg oral dose): four

SMILES: C[C@H]1CCc2c([nH]c3ccccc23)[C@@]2(N1)C(=O)Nc1ccc(Br)cc12 [Compound 22]
EC50 [14]: 10 nM | EC50 [15]: 16 nM

SMILES: C[C@@H]1CCc2c([nH]c3ccccc23)[C@]2(N1)C(=O)Nc1ccc(Br)cc12 [Compound 23]
EC50 [14]: > 5000 nM | EC50 [15]: > 3000 nM

half-life [18]: 10 min | Liver Microsomes CLint, Human [18]: Med | Liver Microsomes CLint, Mouse [19]: High | half-life [19]: 4.2 min | EC50 [20]: 3.4 nM
SMILES: C[C@H]1Cc2c([nH]c3ccc(F)cc23)[C@@]2(N1)C(=O)Nc1ccc(Cl)cc12 [Compound 27]

half-life [18]: 53.3 min | Liver Microsomes CLint, Human [18]: Low | Liver Microsomes CLint, Mouse [19]: Low | half-life [19]: 53 min | EC50 [20]: 3.5 nM
SMILES: C[C@H]1Cc2c([nH]c3cc(F)ccc23)[C@@]2(N1)C(=O)Nc1ccc(Cl)cc12 [Compound 28]

SMILES: C[C@H]1Cc2c([nH]c3cc(F)c(F)cc23)[C@@]2(N1)C(=O)Nc1ccc(Cl)cc12 [Compound 29]
half-life [18]: 56.4 min | Liver Microsomes CLint, Human [18]: Low | Liver Microsomes CLint, Mouse [19]: Low | half-life [19]: 49.1 min | EC50 [20]: 0.2 nM

SMILES: C[C@H]1Cc2c([nH]c3cc(Cl)c(F)cc23)[C@@]2(N1)C(=O)Nc1ccc(Cl)cc12 [Compound 30]
half-life [18]: 76 min | Liver Microsomes CLint, Human [18]: Low | clearance of P. berghei infection [21]: completely cleared a P. berghei infection in all treated mice | Liver Microsomes CLint, Mouse [19]: Low | half-life [19]: 49 min | bioavailability [22]: 100% | EC50 [20]: 0.9 nM | half-life ([17]; in vivo, po): 600 min

SMILES: CC1(C)N=C(N)N=C(N)N1c1ccc(Cl)cc1 [Cycloguanil]
Ki [23]: 1.51 ± 0.1 nM | Ki [24]: 454 ± 38 nM

SMILES: CCc1nc(N)nc(N)c1-c1ccc(Cl)cc1 [Pyrimethamine]
Ki [23]: 0.59 ± 0.05 nM | Ki [24]: 385 ± 163 nM
